Results published in patent US20220025324A1, “METHODS OF PRODUCING VENOUS ANGIOBLASTS AND SINUSOIDAL ENDOTHELIAL CELL-LIKE CELLS AND COMPOSITIONS THEREOF” (University Health Network, priority 2018, published 2022).

Columns and labels:
Type in all cases: cell-based, human
arterial and venous ECs = test: IOX2 treatment of arterial and venous LSEC-LCs (HIF1a signalling), flow cytometry and qRT-PCR
From the text: FIG. 6: CD32B Expression is Regulated by Hypoxia/HIFla Signalling. […] (6B) Representative flow cytometric analysis of normoxic cultured CD31+ arterial LSEC-LCs treated with DMSO or IOX2 at increasing doses (days 12-16). (6C) qRT-PCR analysis of LSEC markers in day 16 arterial and venous LSEC-LCs cultured under normoxia conditions treated with DMSO or increasing IOX2 doses for 4 days (ANOVA with Bonferroni test, *p<0.05, comparing arterial and venous cells at give IOX2 doses). (6D) Representative flow cytometric analysis of day 16 arterial and venous CD31+ LSEC-LCs cultured under normoxic and hypoxic conditions with and without IOX2. For all qRT-PCR analysis, expression values are normalized to levels of the housekeeping gene TBP. Error bars represent SEM.
To further investigate the role of oxygen on LSEC marker expression, we next interrogated the HIFI a signaling pathway as a probable mechanistic regulator of EC gene expression.

[1] = tested on: venous angioblast-derived populations; test: LSEC-LC specification of venous angioblast-derived populations, RT-qPCR of LSEC associated markers; conditions: for expression of LSEC associated markers (LYVE1, STAB2, FCGR2B, F8): treated every 2 days for 4 days, RT-qPCR of bulk populations
Experimental: (3A) Schematic of EB-based hPSC-derived day 4 mesoderm differentiation to venous angioblasts, endothelial cells and LSEC-like cells (LSEC-LCs). […] For all qRT-PCR analysis, expression values are normalized to levels of the housekeeping gene TBP. Error bars represent SEM.
The resulting bulk populations were analyzed for expression of LSEC associated markers by RT-qPCR (FIG. 3B). Based on immunofluorescence (Strauss et al., 2017), flow cytometry (Fomin et al., 2013), bulk RNA-seq (Shahani et al., 2014), and recent single cell RNA-seq of human liver (MacParland et al., 2018) studies, human LSECs are distinguished by the co-expression of surface receptors, secreted proteins, and transcription factors including, LYVE1, CD14, CD32B (FCGR2B), CD36, CD54 (ICAM1), CD73, CD144, CD206 (MRC1), STAB1, STAB2, CLEC1B, PLAVP, GATA4 and F8 among others. Additionally, they express lower levels of canonical vascular markers such as CD31(PECAM1), CD34, CD105, CD309 (KDR), and VWF than portal arterial and venous endothelial cells. As a candidate marker set we focused the analysis on expression of scavenger receptors LYVE1, STAB2, CD32B/FCGR2B, F8, and VWF.

[2] = tested on: tdRFP+ CD31+ CD32+ LYVE1+ cells; test: Fenestration by scanning electron microscopy after latrunculin A stimulation
From the text: FIG. 11: hPSC-Derived, In Vivo Matured LSECs are Fenestrated and Scavenge E. coli Bioparticles. (11A) Representative scanning electron microscopic images of primary human insitu vasculature imaged on the cut surface of fresh fixed liver tissue. LSECs, terminal portal venous endothelium and hepatic artery endothelium are shown for comparison of presence (indicated by white arrows) or absence of fenestrations. (11B) Representative scanning electron microscopic images of day 8 venous angioblast-derived, in vivo-matured, FACS-isolated based on indicated marker panels, overnight-cultured, treated for 30 minutes with or without fenestration (white arrows) stimulating 0.1 μg/ml Latrunculin A, fixed and processed for SEM. Imaging conditions and scale bar are indicated on each image. (11C) Quantification of fenestrated cells (>10 fenestrations arranged in a defined sieve plate cluster), endothelial cells (smooth edged cells with angiogenic lateral sprouts free from fibroblast-like adhesions), non-endothelial cells (fibroblast-like cells and rounded cells) was performed manually on the indicated numbers of cells from a total of at least 4 independent replicates pooling the data. Comparative in vitro derived cells including venous LSEC-LCs sorted as CD31+CD32+LVYE1+ on day 18, replated and cultured for an additional 10 days in addition to standard multi-donor derived HUVECs that were also quantified with and without Latrunculin A stimulation. (11D-11E) Quantification of fenestration size (longest diameter) in (11C) primary human LSECs in situ (black), venous angioblast-derived, in vivo matured and isolated LSECs with (white) and without (grey) latrunculin A stimulation. (11E) Quantification of surface area of LSECs covered by fenestrations before and after latrunculin stimulation. Error bars represent SEM. […]

[3] = tested on: hPSC-derived day 4 mesoderm; test: VEGF and bFGF titration on day 4 mesoderm cultures, day 6 flow cytometry for CD34+ angioblast subpopulations
Experimental: (1A) Schematic of EB-based hPSC differentiation to venous angioblasts. (1B) Heatmap comparing kinetic gene expression profiles of day 0-8 bulk EB populations and day 8 CD34+ MACS enriched angioblasts following venous differentiation (day 4-8 10 ng/ml VEGFA, 30 ng/ml bFGF 10 μm GSI) as in (1A). High (dark) and low (light) expression levels are indicated for each gene. (1C) Representative flow cytometric analysis of day 4 KDR+CD56+CD235a-mesodermal cells and day 8 CD34+CD31 low venous angioblasts before and after MACS enrichment. […] For all qRT-PCR analysis, expression values are normalized to levels of the housekeeping gene TBP. Error bars represent SEM.
Previous work from our group (Ditadi et al., 2015) and others (Zhang et al., 2017), has shown that VEGF, bFGF, NOTCH signaling play a role in the specification of arterial and venous vascular fates in hPSC differentiation cultures. The effects of VEGF signaling in promoting arterial and venous development were assessed. To address this, different concentrations of VEGF (0 to 100 ng/ml) were added to day 4 cultures that contained low amounts of bFGF (5 ng/ml) and the resulting day 6 populations were analyzed for the presence of CD34^+CD31^+ vascular cells and CD184^+CD73^lowCD34^+ and CD184^−CD73^+CD34^+ populations that we have previously shown contain progenitors specified to arterial and venous fates respectively.

[4] = arterial and venous ECs, normoxia, 4 days, qRT-PCR
[5] = tdRFP+ CD31+ CD32+ LYVE1+ cells, 30 minutes stimulation
[6] = bFGF up to 30 ng/ml with VEGF 100 ng/ml, days 4-6

Molecule: O=C(O)CNC(=O)c1c(O)c2ccccc2n(Cc2ccccc2)c1=O [IOX2]
- conversion of CD31+ ECs to LYVE1+CD32+ LSEC-LCs (arterial and venous ECs; 4-day application under hypoxic conditions, by day 16): highly efficient conversion
- CD32 protein (arterial and venous ECs; CD31+LYVE1+ arterial ECs under elevated oxygen conditions, increasing doses, days 12-16): dose dependant upregulation
- FCGR2B and F8 expression (arterial and venous ECs; [4]): upregulated
- LYVE1 expression (arterial and venous ECs; [4]): significantly downregulated
- STAB2 expression (arterial and venous ECs; [4]): did not change

Molecule: NC(=O)c1ccc(-c2nc(-c3ccc4c(c3)OCO4)c(-c3ccccn3)[nH]2)cc1 [SB431542, 4-(4-(benzo[d][1,3]dioxol-5-yl)-5-(pyridin-2-yl)-1H-imidazol-2-yl)benzamide]
- expression of LSEC associated markers (LYVE1, STAB2, FCGR2B, F8) [1]: induced the expression of STAB2 and FCGR2B but not LYVE1

Molecule: C/C1=C/C(=O)O[C@@H]2C[C@@H](CC[C@H](C)/C=C\C=C\CC1)O[C@@](O)([C@@H]1CSC(=O)N1)C2 [latrunculin A]
- induction of fenestrations ([2]; HUVECs and extended culture venous LSEC-LCs): nor were they able to be induced to form fenestrations
- cell surface covered by stimulated fenestrations [2, 5]: approximately 40%
- size of the fenestration type that accounts for the increase [2, 5]: ~60 nm

Molecule: VEGF
- bias of CD34+ cells to arterial or venous subpopulation ([3]; 100 ng/ml VEGF, 5 ng/ml bFGF, day 6): predominantly CD184^+CD73^low arterial-like population
- frequency of CD34+ cells ([3]; VEGF 0 to 100 ng/ml added to day 4 cultures with 5 ng/ml bFGF, day 6): significant and dose dependant increase

Molecule: bFGF: bFGF (also referred to as FGF2), growth factor
- size of the CD34+CD184+CD73low subpopulation [3, 6]: decrease
- size of the CD34+CD184-CD73- subpopulation [3, 6]: increase
- size of the total CD34+ population [3, 6]: modest increase

B1: VEGFC: VEGFC growth factor, 0 or 100 ng/ml (protein, UniProt P49767 112-227, looked up)
Vascular endothelial growth …: AHYNTEILKSIDNEWRKTQCMPREVCIDVGKEFGVATNTFFKPPCVSVYRCGGCCNSEGLQCMNTSTSYLSKTLFEITVPLSQGPKPVTISFANHTSCRCMSKLDVYRQVHSIIRR
- expression of lymphatic markers PROX1 and FLT4 ([1]; VEGFC 100 ng/ml, 4 days, RT-qPCR): increased
- expression of LSEC associated markers (LYVE1, STAB2, FCGR2B, F8) [1]: modestly enhance the expression of some LSEC markers
